Source: US6737383B1, “Herbicidal oxadiazolidines” (priority 1999, dated 2004)

What was measured:
rape = assay: Test B pre/postemergence rape; format: in vivo, Brassica napus
In short: (§1)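 Test chemicals in a non-phytotoxic solvent mixture with surfactant were sprayed preemergence onto planted seeds and postemergence onto plants 2 to 18 cm tall (1- to 4-leaf stage). After twelve to sixteen days in a greenhouse, injury was visually rated against untreated controls from 0 (no effect) to 10 (complete control).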

duck salad = assay: Test B flood test duck salad; format: in vivo, Heteranthera limosa
In short: (§2)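 Plants were grown to the 2-leaf stage before treatment with test chemical, then held in a greenhouse for twelve to sixteen days. Injury was visually rated against untreated controls on a 0–10 scale, where 0 is no effect and 10 is complete control.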

soybean = assay: Test B pre/postemergence soybean; format: in vivo, Glycine max
In short: as §1

cocklebur = assay: Test B pre/postemergence cocklebur; format: in vivo, Xanthium strumarium
In short: as §1

morningglory = assay: Test B pre/postemergence morningglory; format: in vivo, Ipomoea hederacea
In short: as §1

corn = assay: Test B pre/postemergence corn; format: in vivo, Zea mays
In short: as §1

rice = assay: Test B flood test rice; format: in vivo, Oryza sativa
In short: as §2

sugar beet = assay: Test B pre/postemergence sugar beet; format: in vivo, Beta vulgaris
In short: as §1

pigweed = assay: Test B pre/postemergence pigweed; format: in vivo, Amaranthus retroflexus
In short: as §1

giant foxtail = assay: Test B pre/postemergence giant foxtail; format: in vivo, Setaria faberii
In short: as §1

purple nutsedge = assay: Test B pre/postemergence purple nutsedge; format: in vivo, Cyperus rotundus
In short: as §1

smallflower flatsedge = assay: Test B flood test smallflower flatsedge; format: in vivo, Cyperus difformis
In short: as §2

velvetleaf = assay: Test B pre/postemergence velvetleaf; format: in vivo, Abutilon theophrasti
In short: as §1

wheat = assay: Test B pre/postemergence wheat; format: in vivo, Triticum aestivum
In short: as §1

crabgrass = assay: Test B pre/postemergence crabgrass; format: in vivo, Digitaria sanguinalis
In short: as §1

blackgrass = assay: Test B pre/postemergence blackgrass; format: in vivo, Alopecurus myosuroides
In short: as §1

[1] = Postemergence, Rate 62 g/ha, scale 0 to 10, 0 is no effect, 10 is complete control
[2] = Postemergence, Rate 125 g/ha, scale of 0 to 10 where 0 is no effect and 10 is complete control
[3] = Preemergence, Rate 62 g/ha, scale of 0 to 10 where 0 is no effect and 10 is complete control
[4] = Preemergence, Rate 125 g/ha, scale of 0 to 10 where 0 is no effect and 10 is complete control
[5] = Preemergence, Rate 250 g/ha, scale 0 to 10 (0 no effect, 10 complete control)
[6] = Preemergence, Rate 500 g/ha, scale of 0 to 10 where 0 is no effect and 10 is complete control
[7] = Rate 500 g/ha, Postemergence, scale 0 to 10, 0 is no effect, 10 is complete control
[8] = Rate 62 g/ha, flood test species, Pre-emergence, visual evaluation after twelve to sixteen days
[9] = Rate 125 g/ha, under heading Pre-emergence, flood test species, visual evaluation after twelve to sixteen days
[10] = Rate 250 g/ha, Pre-emergence (flood test species), scale 0 to 10, 0 is no effect, 10 is complete control
[11] = Rate 500 g/ha, Pre-emergence section of Table B, 0 to 10 scale (0 no effect, 10 complete control)
[12] = Postemergence, Rate 250 g/ha, scale of 0 to 10, 0 is no effect, 10 is complete control

## CC(C)N(C(=O)n1oc(=O)n(CCF)c1=O)c1ccc(Cl)cc1 [Compound 668]
rape; [1]
  Plant response rating, Rape: 2
rape; [2]
  Rape plant response rating: 3
rape; [3]
  Rape plant response rating: 0
rape; [4]
  Rape plant response rating: 5
rape; [5]
  Plant response rating, Rape: 8
rape; [6]
  Plant response rating, Rape: 9
rape; [7]
  Rape plant response rating: 4
Duck salad; [8]
  Plant response rating, Ducksalad (0 to 10 scale, 0 is no effect, 10 is complete control): 0
Duck salad; [9]
  Ducksalad plant response rating (0 to 10 scale, 0 is no effect, 10 is complete control): 0
Duck salad; [10]
  Ducksalad plant response rating: 0
Duck salad; [11]
  Ducksalad plant response rating: 0
soybean; [1]
  Plant response rating, Soybean: 2
soybean; [2]
  Soybean plant response rating: 2
soybean; [3]
  Soybean plant response rating: 0
soybean; [4]
  Soybean plant response rating: 1
soybean; [5]
  Plant response rating, Soybean: 1
soybean; [6]
  Plant response rating, Soybean: 6
soybean; [7]
  Soybean plant response rating: 6
cocklebur; [1]
  Plant response rating, Cocklebur: 0
cocklebur; [2]
  Cocklebur plant response rating: 0
cocklebur; [12]
  Cocklebur plant response rating: 2
cocklebur; [3]
  Cocklebur plant response rating: 0
cocklebur; [4]
  Cocklebur plant response rating: 0
cocklebur; [5]
  Plant response rating, Cocklebur: 0
cocklebur; [6]
  Plant response rating, Cocklebur: 0
cocklebur; [7]
  Cocklebur plant response rating: 2
morningglory; [1]
  Plant response rating, Morningglory: 1
morningglory; [2]
  Morningglory plant response rating: 3
morningglory; [12]
  Morningglory plant response rating: 4
morningglory; [3]
  Morningglory plant response rating: 0
morningglory; [4]
  Morningglory plant response rating: 0
morningglory; [5]
  Plant response rating, Morningglory: 0
morningglory; [6]
  Plant response rating, Morningglory: 5
morningglory; [7]
  Morningglory plant response rating: 4
corn; [1]
  Plant response rating, Corn: 0
corn; [2]
  Corn plant response rating: 0
corn; [12]
  Corn plant response rating: 3
corn; [3]
  Corn plant response rating: 0
corn; [5]
  Plant response rating, Corn: 4
corn; [6]
  Plant response rating, Corn: 9
corn; [7]
  Corn plant response rating: 3
rice; [8]
  Plant response rating, Rice (0 to 10 scale, 0 is no effect, 10 is complete control): 0
rice; [9]
  Rice plant response rating (0 to 10 scale, 0 is no effect, 10 is complete control): 0
rice; [10]
  Rice plant response rating: 0
rice; [11]
  Rice plant response rating: 0
Sugar beet; [1]
  Plant response rating, Sugarbeets: 0
Sugar beet; [2]
  Sugarbeets plant response rating: 0
Sugar beet; [3]
  Sugarbeets plant response rating: 0
Sugar beet; [4]
  Sugarbeets plant response rating: 6
Sugar beet; [5]
  Plant response rating, Sugarbeets: 6
Sugar beet; [6]
  Plant response rating, Sugarbeets: 9
Sugar beet; [7]
  Sugarbeets plant response rating: 6
pigweed; [1]
  Plant response rating, Redroot pigweed: 3
pigweed; [2]
  Redroot pigweed plant response rating: 5
pigweed; [3]
  Redroot pigweed plant response rating: 0
pigweed; [4]
  Redroot pigweed plant response rating: 7
pigweed; [5]
  Plant response rating, Redroot pigweed: 10
pigweed; [6]
  Plant response rating, Redroot pigweed: 10
pigweed; [7]
  Redroot pigweed plant response rating: 7
Giant foxtail; [1]
  Plant response rating, Giant foxtail: 8
Giant foxtail; [2]
  Giant foxtail plant response rating: 9
Giant foxtail; [12]
  Giant foxtail plant response rating: 9
Giant foxtail; [3]
  Giant foxtail plant response rating: 9
Giant foxtail; [4]
  Giant foxtail plant response rating: 9
Giant foxtail; [5]
  Plant response rating, Giant foxtail: 9
Giant foxtail; [6]
  Plant response rating, Giant foxtail: 10
Giant foxtail; [7]
  Giant foxtail plant response rating: 9
Purple nutsedge; [1]
  Plant response rating, Nutsedge: 0
Purple nutsedge; [2]
  Nutsedge plant response rating: 0
Purple nutsedge; [3]
  Nutsedge plant response rating: 0
Purple nutsedge; [4]
  Nutsedge plant response rating: 0
Purple nutsedge; [5]
  Plant response rating, Nutsedge: 0
Purple nutsedge; [6]
  Plant response rating, Nutsedge: 0
Purple nutsedge; [7]
  Nutsedge plant response rating: 0
Smallflower flatsedge; [8]
  Plant response rating, S. Flatsedge (0 to 10 scale, 0 is no effect, 10 is complete control): 0
Smallflower flatsedge; [9]
  S. Flatsedge plant response rating (0 to 10 scale, 0 is no effect, 10 is complete control): 0
Smallflower flatsedge; [10]
  S. Flatsedge plant response rating: 0
Smallflower flatsedge; [11]
  S. Flatsedge plant response rating: 0
velvetleaf; [1]
  Plant response rating, Velvetleaf: 0
velvetleaf; [2]
  Velvetleaf plant response rating: 0
velvetleaf; [3]
  Velvetleaf plant response rating: 3
velvetleaf; [4]
  Velvetleaf plant response rating: 6
velvetleaf; [5]
  Plant response rating, Velvetleaf: 7
velvetleaf; [6]
  Plant response rating, Velvetleaf: 8
velvetleaf; [7]
  Velvetleaf plant response rating: 7
wheat; [1]
  Plant response rating, Wheat: 0
wheat; [2]
  Wheat plant response rating: 0
wheat; [3]
  Wheat plant response rating: 0
wheat; [4]
  Wheat plant response rating: 0
wheat; [5]
  Plant response rating, Wheat: 5
wheat; [6]
  Plant response rating, Wheat: 7
wheat; [7]
  Wheat plant response rating: 0
crabgrass; [1]
  Plant response rating, Crabgrass: 6
crabgrass; [2]
  Crabgrass plant response rating: 9
crabgrass; [12]
  Crabgrass plant response rating: 9
crabgrass; [3]
  Crabgrass plant response rating: 8
crabgrass; [4]
  Crabgrass plant response rating: 8
crabgrass; [5]
  Plant response rating, Crabgrass: 8
crabgrass; [6]
  Plant response rating, Crabgrass: 8
crabgrass; [7]
  Crabgrass plant response rating: 10
blackgrass; [1]
  Plant response rating, Blackgrass: 7
blackgrass; [2]
  Blackgrass plant response rating: 8
blackgrass; [12]
  Blackgrass plant response rating: 8
blackgrass; [3]
  Blackgrass plant response rating: 6
blackgrass; [4]
  Blackgrass plant response rating: 8
blackgrass; [5]
  Plant response rating, Blackgrass: 10
blackgrass; [6]
  Plant response rating, Blackgrass: 10
blackgrass; [7]
  Blackgrass plant response rating: 9
